Laboratory results: publication PMC10885153, “Membrane Permeability in a Large Macrocyclic Peptide Driven by a Saddle-Shaped Conformation” (Journal of the American Chemical Society, 2024)
Where two headings read alike, the source gives them in different places. Non-standard residues stand in square brackets, D forms with d. Residues, ends and D or L forms follow the SMILES beside them. NMeF = CN[C@@H](Cc1ccccc1)C(=O)O; NMeA = CN[C@@H](C)C(=O)O

Experiments:
[1] = PAMPA
Protocol: assay was carried out with a 96-well donor plate with 0.45 μ hydrophobic Immobilon-P membrane supports
(Millipore MAIPNTR10) and a 96-well Teflon acceptor plate (Millipore MSSACCEPTOR). The PAMPA
protocol then proceeded as follows:
Donor well solutions were prepared to a volume of 1 000 µL with the analytes as a solution in 1X
PBS pH 7.4 and 5% DMSO. To a 3 mL Eppendorf tube was added 950 µL of 1X PBS pH 7.4, 40
Analyte – 10 µM per compound
sonicated (5 min) to ensure full dissolution of the lecithin. The donor membrane plate was turned
upside down and bottom of the membranes exposed. 5 µL of the 1% soy lecithin solution in
dodecane was then placed on the bottom of the membrane, allowing the drop to spread across the
full area of the membrane. Any membranes with visible damage were not used in the assay. The
membranes were allowed to equilibrate for 5 min before loading.
3. Each well within the Teflon block acceptor plate that was to be used in the assay was then loaded
with 300 µL of 1X PBS pH 7.4 and 5% DMSO.
Working without break, 150 µL of each donor well solution was transferred from the to the 96-well
donor plate. Each mixture of interest was r un in quadruplicate, using a new well for each replicate.
As soon as the 96-well donor plate was finished being loaded, it was gently placed into the 96-well
Teflon acceptor plate, taking care not to trap any air bubbles beneath the membrane.
The donor/acceptor plates were covered gently with the lid to minimize evaporation and transferred
gently as a system to a sealed chamber and left to sit overnight at room temperature. The chamber
was kept from drying by placing a wet paper towel within to prevent evaporation.
After ~19-20 hours the donor plate was removed from the acceptor plate.
50 µL of each well (donor and acceptor) were transferred to a 96 -well plate and diluted with 50 µL
of methanol prior to heat sealing and quantification by UPLC -MS.

[2] = MDCK
Protocol: We also tested the permeabilities of the pure compounds in a cell-based trans-well permeability assay using Mdr1 knockout Madin–Darby canine kidney (MDCK) cells which minimize the endogenous efflux activity of traditional MDCK cells.[54]
The gMDCKI cell line (overexpressed cell line of Madin -Darby Canine Kidney which acquired from the NIH)
maintained in DMEM medium supplemented with 1% pen -strep, 5 µg/mL Plasmocin, and 10% FBS under
standard culture conditions (37 °C, 95% humidity, and 5% CO2), were seeded (0.75 x 10^5 cells) on the HTS
Transwell-96 permeable support (Corning) to form a confluent monolayer for two days.
All experimental steps were fully automated on Hamilton Vantage. Compound stock solution (1 mM in
DMSO) was diluted (10 μM final in HBSS, pH 7.4) with Lucifer Yellow as leakage indicator (20 μM). After
washing with HBSS buffer, the solution of test compounds was added to the apical side of the monolayers.
The plate was incubated for 3 h at 37 °C. T0 samples (10 µL of the 10 µM compounds diluted solution with
LY) were transferred to a 96-well plate, and then 40 µL of HBSS was added. After 3 hours, 50 μL basolateral
samples in the receiving plate were transferred to a fresh 96-well plate and added 100 μL of IS solution
(Propranolol). LY were read by plate reader and the samples were analyzed by LC/MS/MS.
The apparent permeability coefficient (Papp) is calculated from the permeation rate and compound
concentration at t=0h and t=3h. Where:
dQ/dt: amount of product present in the basal (A-B) or apical (B-A) compartment as a function of time
A: area of transwell (cm2).
C0: initial concentration of product applied in the apical (A -B) or basal (B-A) compartment (nmol/ml).

[3] = set-up: method as in Fouché et al.; conditions: ref Fouché et al.; cited from earlier work
[4] = set-up: method as in Fouché et al.; conditions: rat; ref Fouché et al.; cited from earlier work

Papp [1]: 5 ×10⁻⁶ cm/s
Papp [2]: 11.4 ×10⁻⁶ cm/s
Structure (SMILES): CC(C)C[C@@H]1NC(=O)[C@H](Cc2ccccc2)N(C)C(=O)[C@H]2CCCN2C(=O)[C@H](CC(C)C)NC(=O)[C@H](C)N(C)C(=O)[C@H](CC(C)C)NC(=O)[C@H](Cc2ccccc2)N(C)C(=O)[C@H]2CCCN2C(=O)[C@H](CC(C)C)NC(=O)[C@H](C)N(C)C1=O [compound 1] (cyclo(L[NMeA]L[dP][NMeF]L[NMeA]L[dP][NMeF]))
PAMPA Papp [3]: 5.01 × 10^–6 cm/s
oral bioavailability [4]: 46 %F
